Experiments:
normal bone marrow cells = assay: Normal bone marrow colony assay; format: cell-based, human
Protocol: Normal human bone marrow was also analyzed in a colony assay: 24-well plates seeded with 200 cells/well in MethoCult™ H4434 Classic (methylcellulose-based medium with recombinant cytokines for human cells) ([…] Technologies™ INC., Vancouver, British Columbia, Canada). The plates contained targeted JOSD1 inhibitors at the indicated concentrations. Plates were incubated at 37° C. in 5% CO2 for >1 week, and then myeloid and erythroid colonies (early progenitors with erythroid and myeloid components: colony-forming unit for granulocytes and macrophages (CFU-GM), CFU-erythroid (E), BFU-E, and CFU-granulocyte, erythroid, macrophage, megakaryocyte (GEMM) were counted on an inverted microscope.

[1] = test system: native DUBs (UCHL1, USP30 and JOSD1); assay: Competitive activity-based protein profiling with quantitative mass spectrometry in HEK-293T lysates; format: binding; conditions: block of labeling by DUB activity-based probes
Protocol: Activity Based Protein Profiling (ABPP) assay. DUB targets were investigated using competitive ABPP with quantitative mass spectrometry. The ability to block labeling of 50 DUBs by ubiquitin-based DUB activity-based probes was quantitatively measured in HEK-293T lysates.
DUB ABPP of Compound Targets. Activity-based probes biotin-Ub-PA (UbiQ-076) and biotin-Ub-VME (UbiQ-054) were obtained from UbiQ Bio. DUB Activity based protein profiling was performed using conditions modified from those in Schauer, et al., 2020, Scientific Reports, 10:1-15, based on work by Lawson, et al., 2017 Oncotarget, 8:51296-316. HEK 293T cells were lysed (50 mM Tris pH 8.0, 150 mM NaCl, 5 mM MgC2, 0.5 mM EDTA, 0.5% NP-40, 10% glycerol, 1 mM tris(2-carboxyethyl)phosphine (TCEP), protease and phosphatase inhibitors) and the lysate was clarified by centrifugation, then diluted to 10 mg/mL. 200 μL aliquots were incubated at the indicated compound concentrations or DMSO for 5 hours at room temperature, final DMSO concentration 0.5%. Afterwards, the treated lysates were incubated with 1 μM each of Biotin-Ub-PA and Biotin-Ub-VME for 90 minutes at room temperature. […]
Specifically, quantitative mass spectrometry was utilized to measure the ability of compounds 1 and 2 to block labeling of […] native DUBs by ubiquitin-based DUB activity-based probes in HEK-293T lysates. […]

USP30 = USP30 (Homo sapiens (Human), UniProt Q70CQ3); assay: USP30 biochemical IC50
Sequence of USP30 (Q70CQ3 whole entry, species assumed): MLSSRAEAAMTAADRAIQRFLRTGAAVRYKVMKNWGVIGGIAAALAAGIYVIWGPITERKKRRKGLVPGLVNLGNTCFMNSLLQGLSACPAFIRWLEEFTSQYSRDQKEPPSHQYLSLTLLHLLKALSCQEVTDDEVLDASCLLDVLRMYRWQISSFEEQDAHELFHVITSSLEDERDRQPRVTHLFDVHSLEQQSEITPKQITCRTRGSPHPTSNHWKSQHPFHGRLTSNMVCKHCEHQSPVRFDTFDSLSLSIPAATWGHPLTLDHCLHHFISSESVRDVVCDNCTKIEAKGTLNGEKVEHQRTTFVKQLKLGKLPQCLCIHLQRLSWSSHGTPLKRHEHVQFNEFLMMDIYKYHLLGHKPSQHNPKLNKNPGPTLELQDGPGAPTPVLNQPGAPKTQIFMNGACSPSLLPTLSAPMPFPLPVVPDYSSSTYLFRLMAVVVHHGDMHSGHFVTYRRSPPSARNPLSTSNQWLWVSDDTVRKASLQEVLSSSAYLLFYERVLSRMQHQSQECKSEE

UCHL1 = UCHL1 (Homo sapiens (Human), UniProt P09936); assay: UCHL1 biochemical inhibition (ubiquitin hydrolase activity, purified enzyme)
Sequence of UCHL1 (P09936 whole entry, species assumed): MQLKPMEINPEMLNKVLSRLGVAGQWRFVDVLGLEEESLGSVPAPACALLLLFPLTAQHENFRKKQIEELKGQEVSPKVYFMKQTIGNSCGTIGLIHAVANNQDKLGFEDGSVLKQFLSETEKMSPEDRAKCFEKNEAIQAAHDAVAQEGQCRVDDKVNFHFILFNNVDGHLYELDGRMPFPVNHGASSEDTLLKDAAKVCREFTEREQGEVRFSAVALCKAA

wt JAK2 = wt JAK2 (Mus musculus (Mouse), UniProt Q62120); assay: JAK2 protein level by western blotting in Ba/F3-EPOR-JAK2 wt cells; format: cell-based
Protocol: (§1) Immunoblotting and Immunoprecipitation. Protein lysate preparation, immunoblotting, and immunoprecipitation were carried out as previously described (Lamberto, et al., 2017 Cell Chem Biol., 224(12):1490-500 e11). Briefly, 0.7×10^6 cells were treated with compounds 1 and 2 at 0, 5, 10, and 20 μM for 16 or 24 hours, cells were collected, and lysate was prepared in radioimmunoprecipitation assay (RIPA) buffer, JAK family and downstream signaling protein levels were detected by western blotting with the indicated antibodies. For immunoprecipitation, 1 mg protein for each sample was prepared and 1 μg antibody was used, immunoglobulin G (IgG) was added in same amount as nontargeting control.

JAK2-V617F [2] = assay: JAK2 protein level by western blotting in Ba/F3-EPOR-JAK2-V617F cells; format: cell-based
Protocol: as §1, with “[…],” for “and 20 μM for 16 or 24 hours,”
A broader range of compounds 1 and 2, including concentrations lower than 1 μM, were also tested on growth of EPOR-JAK2-V617F-expressing Ba/F3 cells and parental Ba/F3 EpoR+ cells (24 hours treatment on 4000 cells per well) (FIG. 18-FIG. 18B). Cell growth inhibition (FIG. 17A-FIG. 17B, FIG. 18A-FIG. 18B) was tested on Ba/F3-EPOR-JAK2-V617F (-IL-3/WEHI) and parental Ba/F3-EPOR cells (+IL-3/WEHI) plated at 2000 cells per well, at 1, 3 and 10 μM for 24 hours using the Promega CellTiter Glo® assay.

SOCS1 = SOCS1 (Homo sapiens (Human), UniProt O15524); assay: SOCS1 expression in HEL cells by western blotting; format: cell-based; conditions: 5 μM
Protocol: (§2) With JOSD1 as the prime candidate, JOSD1 binding and inhibition was evaluated by the compounds. First, targeted engagement was confirmed by showing competition with DUB ABP in HEL-FLAG-HA-JOSD1 cells following treatment with the two agents (FIG. 4D). The structures for negative control compounds 66 and 67 are shown below. In addition, the effects of small molecule inhibition of JOSD1 was investigated on MCL-1, an established substrate of JOSD1 (Wu, et al., 2020 Cell Death Differ., 27(1):55-70). […] Other exemplary compounds that inhibit DUBs are listed below in Table 3 (See Supra, ¶ [0063] for structures)

MCL-1 = MCL-1 (Homo sapiens (Human), UniProt Q07820); assay: MCL-1 expression in HEL cells by western blotting; format: cell-based; conditions: 10-20 μM
Protocol: as §2

JAK2-V617F [3] = biological target: JAK2-V617F (Homo sapiens (Human), UniProt O60674, V617F); assay: JAK2-V617F protein loss in human AML cell lines by western blotting; format: cell-based; conditions: HEL cells, co-treatment with cycloheximide
Protocol: as §1

normal bone marrow colony formation (normal bone marrow cells; 5 μM or higher): significantly impaired
normal bone marrow colony formation (normal bone marrow cells; concentrations up to 2.5 μM): colonies were able to form
USP30 biochemical IC50 (range in words) (USP30): several hundred
UCHL1 biochemical IC50 (range in words) (UCHL1): several hundred
JAK2 levels in wt cells (wt JAK2): little to no impact on JAK2 levels
SOCS1 expression (SOCS1): decrease
MCL-1 expression (MCL-1): decrease
JAK2-V617F protein half-life (JAK2-V617F [3]): shorten JAK2-V617F protein half-life
SMILES: Cc1noc(C)c1-c1cccc2nc(NC(=O)[C@H]3CCN(C#N)C3)sc12 [Compound 2, (S)-1-cyano-N-(7-(3,5-dimethylisoxazol-4-yl)benzo[d]thiazol-2-yl)pyrrolidine-3-carboxamide]
target engagement of UCHL1, USP30 and JOSD1 [1]: dose-dependent target engagement
JAK2 degradation, independent western blotting (JAK2-V617F [2]; 18 hours, 10 μM compound 1 or 5 μM compound 2): degradation of JAK2
JAK2-V617F protein level (JAK2-V617F [2]; Ba/F3-EPOR-JAK2-V617F-expressing cells): decreases in JAK2-V617F protein

— patent US20240335427A1, “SMALL MOLECULE INHIBITION OF DEUBIQUITINATING ENZYME JOSEPHIN DOMAIN CONTAINING 1 (JOSD1) AS A TARGETED THERAPY FOR LEUKEMIAS WITH MUTANT JANUS KINASE 2 (JAK2)” (DANA-FARBER CANCER INSTITUTE, INC., priority 2021, published 2024)
